In patent publication US20230303486A1, “CYCLOBUTYL-UREA DERIVATIVES” (Idorsia Pharmaceuticals Ltd, priority 2020, published 2023) one finds IC50 data, which are given here for 26 compounds.

For the experiment, the system named is primary neuronal cultures from embryonic rat brains. As to the kind of experiment: Rat oscillation assay (FLIPR, neuronal calcium oscillations). The experiment is classed as cell-based. The procedure: This assay is a functional phenotypic assay designed to mimic epileptic seizures using primary neuronal cultures from embryonic rat brains, which form a functional neuronal network that generate synchronized intracellular calcium concentration oscillations when cultured at high density in 384-well plate. The epileptic phenotype is induced by incubating the neurons in magnesium-free assay buffer, that results in increased probability of NMDA receptor activation, leading to an increased frequency and amplitude of intracellular calcium oscillations. Once neurons are incubated with the calcium indicator dye Fluo-8 AM (Tebu-bio), neuronal calcium oscillations can be monitored in real time using FLIPR® Tetra (fluorometric plate reader, Molecular Devices). With these recordings, the effect of anti-epileptic drugs can be quantified. The anti-epileptic effect of compounds, which activate directly or indirectly the Kv7 channels can be modulated by the Kv7 channel blocker XE-991. The assay was performed as described previously (Pacico N, Mingorance-Le Meur A. New In Vitro Phenotypic Assay for Epilepsy: Fluorescent Measurement of Synchronized Neuronal Calcium Oscillations. PLoS ONE 9(1) 2014) with modifications described hereafter.
Animal care followed standard procedures in accordance with swiss institutional guidelines. Dissociated neuronal cultures were obtained from cerebral cortices of embryonic Wistar rats at embryonic stage E18 (Charles River). The uterine horns were removed by caesarian surgery from deeply anesthetized rats (Isofurane) and sacrificed by decapitation. The embryos were decapitated by closing forceps. The brains were isolated and dissected one by one in ice-cold PBS (Life Technologies) under optical control using a binocular. Meninges, olfactory bulbs, and basal ganglia were removed. Cortical hemispheres (still including the hippocampus) were cut in small pieces with tweezers and placed on ice in prechilled Hibernate-E medium (Life technology). The hemispheres were then incubated in 10 mL of Hibernate-E containing 15 U/mL papain (Worthington) for 25 min at 30° C. with gentle mixing every 10 min. Genomic DNA was then digested by prolonging the incubation during 10 min at 37° C. in presence of 4 U/mL rDNase I (Ambion). The obtained suspension was then centrifuged at 800 g for 5 min and the cell pellet was resuspended in 2 mL Hibernate-E and gently dissociated by pipetting up and down 10 times with a plastic Pasteur pipette resulting in a homogenous cell suspension. This suspension was immediately filtered through a 70 µm cell strainer (MACS® SmartStrainer, Miltenyi), collected in 10 mL Hibernate-E and centrifuged at 800 g for 5 min. The cell pellet was resuspended in Neurobasal medium, supplemented with 2% B-27, 0.5 mM Glutamax-I, 100 U/mL penicillin, 100 µg/mL streptomycin (Life Technologies) and diluted at the final concentration of 300′000 cells/mL. One day before plating the cells, 384-well plates were coated with 25 µL/well of 0.1 % poly-L-lysine solution (Sigma), incubated overnight at 37° C., washed two times with sterile distilled water and allowed to dry at room temperature for >2 h. The neurons were seeded at a density of 15′000 cells/well in 50 µL/well in a 384-well black, clear-bottomed plates (Corning) and subsequently maintained in an incubator at 37° C., 5% CO2 and 95% humidity for 8 to 10 days. After 3 and 7 days, 40% of media was renewed under sterile conditions.
Neurons seeded in the assay plates were washed with Hank’s balanced salt solution (HBSS) devoid of Ca^2+ and Mg^2+, supplemented with 20 mM HEPES (Life Technologies) and 2 mM CaCl2 (Sigma), pH 7.4 (hereafter called Assay buffer) using a Biotek EL406 plate washer. Neurons were loaded with 1 µM Fluo-8 AM in Assay buffer for 15 min at 37° C., 5% CO2. […]

Setting [1] is: Rattus norvegicus, 20 min, 20 min after compound addition, AUC of fluorescence, read-out: FLIPR: IC50 [nM] 20 min.
The mark [2] stands for this setting: Rattus norvegicus, Cortical neurone, acute phase, ratio of AUC fluorescence before and after compound addition, rat cortical neurons, Mg-free buffer, read-out: FLIPR: IC50 [nM] acute.
Where [3] appears, read: 20 min after compound addition, AUC of fluorescence, read-out: FLIPR: IC50 [nM] 20 min.
The mark [4] stands for this setting: acute phase, ratio of AUC fluorescence before and after compound addition, rat cortical neurons, Mg-free buffer, read-out: FLIPR: IC50 [nM] acute.

Where two headings read alike, the source gives them in different places.

Turning to `CC1(NC(=O)NCc2cccc(C(F)(F)F)c2)CC(F)(F)C1` [Example 49, 1-(3,3-Difluoro-1-Methyl-Cyclobutyl)-3-(3-Trifluoromethyl-Benzyl)-Urea], the concentration for half-maximal inhibition (IC50) – broadly, the concentration at which inhibition is half-maximal – reads like this: under setting [1], 628 nM; under setting [2], 247 nM.
For `O=C(NCc1cccc(OC(F)(F)F)c1)NC12CC(C1)C2` [Example 26, 1-Bicyclo[1.1.1]pent-1-yl-3-(3-trifluoromethoxy-benzyl)-urea] the same measures were 315 nM and 295 nM.
As to `O=C(NCc1cccc(C(F)(F)F)c1)NC1CC(C(F)(F)F)C1` (single isomer, unassigned) [Example 50, 1-(3-(Trifluoromethyl)Benzyl)-3-(3-(Trifluoromethyl)Cyclobutyl)Urea], the IC50 under setting [3] turned out to be 82 nM and the IC50 under setting [4] amounted to 68 nM.
As to `O=C(NCc1ccnc(OCC(F)(F)F)c1)NC12CC(C1)C2` [Example 43, 1-Bicyclo[1.1.1]Pent-1-yl-3-[2-(2,2,2-Trifluoro-Ethoxy)-Pyridin-4-Ylmethyl]-Urea], the half-maximal inhibitory concentration (IC50) was found to be 967 nM under setting [1] and 578 nM under setting [2].
For `CC(NC(=O)NC12CC(C1)C2)c1cccc(C(F)(F)F)c1` (stereo not shown) [Example 2, 1-Bicyclo[1.1.1]Pent-1-yl-3-[1-(3-Trifluoromethyl-Phenyl)-Ethyl]-Urea] the same measures were 466 nM and 291 nM.
Regarding `O=C(NCc1cc(F)cc(C(F)(F)F)c1)NC12CC(C(F)F)(C1)C2` [Example 16, 1-(3-Difluoromethyl-bicyclo[1.1.1]pent-1-yl)-3-(3-fluoro-5-trifluoromethyl-benzyl)-urea], the half-maximal inhibitory concentration (IC50) is, setting by setting: under setting [1], 848 nM; under setting [2], 716 nM.
On to `O=C(NC(CO)c1cccc(C(F)(F)F)c1)NC12CC(C(F)F)(C1)C2` (stereo not shown) [Example 12, 1-(3-Difluoromethyl-Bicyclo[1.1.1]Pent-1-yl)-3-[2-Hydroxy-1-(3-Trifluoromethyl-Phenyl)-Ethyl]-Urea], for which the 50% inhibitory concentration (IC50) reads like this: under setting [1], 164 nM; under setting [2], 154 nM.
Taken in the same sequence, the figures for `O=C(NCc1cccc(C(F)(F)F)c1)NC12CC(CF)(C1)C2` [Example 40, 1-(3-Fluoromethyl-bicyclo[1.1.1]pent-1-yl)-3-(3-trifluoromethyl-benzyl)-urea] were 248 nM and 149 nM.
In the case of `CC12CC(NC(=O)NCc3cccc(C(F)(F)F)c3)(C1)C2` [Example 39, 1-(3-Methyl-bicyclo[1.1.1]pent-1-yl)-3-(3-trifluoromethyl-benzyl)-urea], the half-maximal inhibitory concentration (IC50) by setting is: under setting [1], 68 nM; under setting [2], 41 nM.
For the compound `O=C(NCc1cccc(OC(F)F)c1)NC1CC(C(F)F)C1` (stereo not shown) [Example 21, 1-(3-Difluoromethoxy-benzyl)-3-(3-difluoromethyl-cyclobutyl)-urea], the concentration for half-maximal inhibition (IC50) under setting [1] turned out to be 942 nM and the IC50 under setting [2] is 373 nM.
For `O=C(NCc1cccc(C(F)(F)F)c1)NC1CC(O)(C(F)(F)F)C1` (stereo not shown) [Example 42, 1-(3-Hydroxy-3-trifluoromethyl-cyclobutyl)-3-(3-trifluoromethyl-benzyl)-urea] the same measures were 1920 nM and 1170 nM.
For `O=C(NC(c1cccc(C(F)(F)F)c1)C(F)F)NC12CC(C(F)F)(C1)C2` (stereo not shown) [Example 13, 1-(3-Difluoromethyl-bicyclo[1.1.1]pent-1-yl)-3-[2,2-difluoro-1-(3-trifluoromethyl-phenyl)-ethyl]-urea] the same measures were 41 nM and 14 nM.
As to `CC1(NC(=O)NC(c2cccc(C(F)(F)F)c2)C(F)F)CC(F)(F)C1` (stereo not shown) [Example 10, 1-(3,3-Difluoro-1-Methyl-Cyclobutyl)-3-[2,2-Difluoro-1-(3-TrifluoromethylPhenyl)-Ethyl]-Urea], the IC50 runs as follows: under setting [1], 51 nM; under setting [2], 57 nM.
With `CC(NC(=O)NC1CC(C(F)F)C1)c1cccc(OC(F)(F)F)c1` (stereo not shown) [Example 7, 1-(3-Difluoromethyl-cyclobutyl)-3-[1-(3-trifluoromethoxyphenyl)-ethyl]-urea], the 50% inhibitory concentration (IC50) under setting [1] was found to be 100 nM and the IC50 under setting [2] was determined as 63 nM.
As for `O=C(NCc1ccnc(OCC(F)(F)F)c1)NC1CC(C(F)F)C1` (single isomer, unassigned) [Example 56, 1-(3-(Difluoromethyl)Cyclobutyl)-3-((2-(2,2,2-Trifluoroethoxy)Pyridin-4-yl)Methyl)Urea], the IC50 amounted to 547 nM under setting [3] and 123 nM under setting [4].
In the case of `O=C(NCc1cccc(C(F)(F)F)c1)NC12CC(C1)C2` [Example 35, 1-Bicyclo[1.1.1]Pent-1-yl-3-(3-Trifluoromethyl-Benzyl)-Urea], the IC50 runs as follows: under setting [1], 717 nM; under setting [2], 231 nM.
As for `O=C(NCc1cccc(OCC(F)(F)F)c1)NC12CC(F)(C1)C2` [Example 17, 1-(3-Fluoro-Bicyclo[1.1.1]Pent-1-yl)-3-[3-(2,2,2-Trifluoro-Ethoxy)-Benzyl]-Urea], the IC50 under setting [1] amounted to 239 nM and the half-inhibitory concentration (IC50) under setting [2] worked out at 202 nM.
As for `COCC(NC(=O)NC12CC(C(F)F)(C1)C2)c1cccc(C(F)(F)F)c1` (stereo not shown) [Example 14, 1-(3-Difluoromethyl-bicyclo[1.1.1]pent-1-yl)-3-[2-methoxy-1-(3-trifluoromethyl-phenyl)-ethyl]-urea], the IC50 by setting is: under setting [1], 79 nM; under setting [2], 37 nM.
For `CC(NC(=O)NC12CC(C1)C2)c1cccc(OC(F)F)c1` (stereo not shown) [Example 11, 1-Bicyclo[1.1.1]Pent-1-yl-3-[1-(3-Difluoromethoxy-Phenyl)-Ethyl]-Urea], the concentration for half-maximal inhibition (IC50) reads like this: under setting [1], 1360 nM; under setting [2], 741 nM.
Turning to `CC(NC(=O)NC12CC(C(F)F)(C1)C2)c1cccc(C(F)(F)F)c1` (stereo not shown) [Example 5, 1-(3-Difluoromethyl-bicyclo[1.1.1]pent-1-yl)-3-[1-(3-trifluoromethyl-phenyl)-ethyl]-urea], the half-inhibitory concentration (IC50) by setting is: under setting [1], 216 nM; under setting [2], 296 nM.
With `O=C(NCc1ccnc(OC(F)(F)F)c1)NC12CC(C(F)(F)F)(C1)C2` [Example 30, 1-(2-Trifluoromethoxy-Pyridin-4-Ylmethyl)-3-(3-Trifluoromethyl-Bicyclo[1.1.1]Pent-1-yl)-Urea], the IC50 reads like this: under setting [1], 1480 nM; under setting [2], 804 nM.
Consider `O=C(NCc1cccc(C(F)F)c1)NC12CC(C(F)(F)F)(C1)C2` [Example 28, 1-(3-Difluoromethyl-Benzyl)-3-(3-Trifluoromethyl-Bicyclo[1.1.1]Pent-1-yl)-urea], for which the IC50 is, setting by setting: under setting [1], 203 nM; under setting [2], 117 nM.
Turning to `CC(NC(=O)NC1CC(C(F)F)C1)c1ccnc(OC(F)F)c1` (racemic) [Example 33, (±)-1-[1-(2-Difluoromethoxy-Pyridin-4-yl)-Ethyl]-3-(3-Difluoromethyl-Cyclobutyl)-Urea], the 50% inhibitory concentration (IC50) under setting [1] is 1510 nM and the IC50 under setting [2] was found to be 946 nM.
On to `O=C(NCc1cccc(OC(F)F)c1)NC12CC(F)(C1)C2` [Example 20, 1-(3-Difluoromethoxy-Benzyl)-3-(3-Fluoro-Bicyclo[1.1.1]Pent-1-yl)-Urea], for which the half-maximal inhibitory concentration (IC50) under setting [1] turned out to be 467 nM and the 50% inhibitory concentration (IC50) under setting [2] came out at 566 nM.
Taken in the same sequence, the figures for `O=C(NCc1cccc(C(F)(F)F)c1F)NC12CC(C(F)F)(C1)C2` [Example 15, 1-(3-Difluoromethyl-bicyclo[1.1.1]pent-1-yl)-3-(2-fluoro-3-trifluoromethyl-benzyl)-urea] were 960 nM and 619 nM.
For `CC(NC(=O)NC12CC(F)(C1)C2)c1cccc(OC(F)(F)F)c1` (stereo not shown) [Example 8, 1-(3-Fluoro-bicyclo[1.1.1]pent-1-yl)-3-[1-(3-trifluoromethoxyphenyl)-ethyl]-urea], the IC50 by setting is: under setting [1], 331 nM; under setting [2], 168 nM.
